In patent EP0385106A1, “Sustained release bolus effective for the prolonged prevention, treatment or control of nematode, acarid and endo- and ectoparasitic infestations of ruminants” (AMERICAN CYANAMID COMPANY, priority 1989, dated 1990):

Columns and labels:
Type in all cases: in vivo
nematode eggs = assay: Nematode eggs per gram of feces in pastured cattle (Example 14)
Protocol: (§1) One half boluses (weight 25.5 to 27.0 g) and are administered to cattle on pasture. […] In this test pastured animals are randomly divided into groups of 5 animals per group and ear-tagged. The feces of all animals is examined prior to the tests in order to determine the average number of nematode eggs per gram of feces of the test animals. […] The test is begun with all animals receiving one half of a bolus weighing about 25 to 27 grams. […] The animals are then placed in individual paddocks and examined at intervals during the holding period up to 120 days. […]

Cooperia = assay: Per cent control of nematodes in cattle (Example 14); conditions: dewormed 57 days earlier
Protocol: as §1

Haemonchus = assay: as above; conditions: dewormed 57 days earlier
Protocol: as §1

Oesophlogostonum = assay: as above; conditions: dewormed 57 days earlier
Protocol: as §1

Ostertagia = assay: as above; conditions: dewormed 57 days earlier
Protocol: as §1

[1] = Weight gains of cattle (Example 14)
Protocol: as §1

c1ccc([C@H]2CN3CCSC3=N2)cc1 [Levamisole]
Average number of nematode eggs per gram of feces (nematode eggs; Day 0 (before treatment)): (2850) | Average number of nematode eggs per gram of feces (nematode eggs; Day 7): 5 | per cent in parentheses beside the egg count (reduction of nematode eggs) (nematode eggs; Day 7): 99.9% | Average number of nematode eggs per gram of feces (nematode eggs; Day 62 (levamisole group re-treated on day 62)): 755 | Average number of nematode eggs per gram of feces (nematode eggs; Day 119): 146 | Avg. number worms Cooperia (Cooperia): 5937 | Avg. number worms Haemonchus (Haemonchus): 2325 | Avg. number worms Oesophlogostonum (Oesophlogostonum): 117 | Avg. number worms Ostertagia (Ostertagia): 729 | Average weight gains (Kg) from Day 0 ([1]; Day 7): 7 kg | Average weight gains (Kg) from Day 0 ([1]; Day 62): 0 kg | Average weight gains (Kg) from Day 0 ([1]; Day 110): 21 kg
